According to patent publication US5861387A, “Controlled release systems and low dose androgens” (Endorecherche Inc., priority 1995, dated 1999):

Key:
[1] = test system: human breast cancer ZR-75-1 cells, androgen receptor; assay: Androgenic (androgen receptor) activity in ZR-75-1 cells: cell growth and GCDFP-15/GCDFP-24 secretion; assay type: cell-based; details: ZR-75-1 cells, low concentrations
Experimental: Maintenance of stock cultures The ZR-75-1 human breast cancer cell line can be obtained from the American Type Culture Collection (Rockville, Md.). The cells are routinely cultured in phenol red-free RPMI 1640 medium supplemented with 10 nM E2, 15 mM Hepes, 2 mM L-glutamine, 1 mM sodium pyruvate, 100 IU penicillin per ml, 100 μg streptomycin sulfate per ml, and 10% (v/v) fetal bovine serum (FBS), in a water-saturated atmosphere of 95% air: 5% CO2 at 37° C.
Stock cultures in their logarithmic growth phase are harvested with 0.05% trypsin/0.02% EDTA (w/v) in Hanks' balanced salts solution and resuspended in E2- and phenol red-free RPMI 1640 medium containing 5% (v/v) dextran-coated charcoal (DCC)-treated FBS and 500 ng of bovine insulin per ml, but otherwise supplemented as described above for maintenance of stock cultures. Cells were plated in 24-well Linbro culture plates (Flow Laboratories) at a final density of 0.5-4.0×10^4 cells/well.
Fourty-eight hours after plating, fresh SD medium containing the appropriate concentrations of steroids are added. […] The incubation media are replaced every other day and cells are harvested by trypsinization after 12 days of treatment, unless otherwise indicated. Cell number can be determined with a Coulter Counter.
Calculations and statistical analyses Apparent IC50 values are calculated using an iterative least squares regression (Rodbard, Endocrinology 94:1427-1437,1974), while apparent inhibition constants (Ki values) are calculated according to Cheng and Prusoff (Biochem. Pharmacol. 22: 3099-3108,1973).
In addition to inhibition of cell growth, the secretion of two glycoproteins, namely gross cystic disease fluid protein-15 (GCDFP-15) and GCDFP-24 is markedly stimulated by androgens (Simard et al., Mol. Endocrinol. 3: 694-702, 1989; Simard et al., Endocrinology 126: 3223-3231, 1990).
To assist in determining the activity of the potential compounds on the various steroid receptors, androgen, glucocorticoid, progesterone and estrogen-receptor-mediated activities of synthetic progestins and anabolic steroids can be measured in ZR-75-1 human breast cancer cells using cell growth as well as GCDFP-15 and GCDFP-24 release as parameters of response (Poulin and Labrie, Cancer Res. 46: 4933-4937, 1986; Poulin et al., Breast Cancer Res. Treatm. 12: 213-225, 1988; Poulin et al., Breast Cancer Res. Treatm. 13: 161-172, 1989; Poulin et al., Breast Cancer Res. Treatm. 13: 265-276, 1989; Simard et al., Mol. Endocrinol. 3: 694-702, 1989; Simard et al., Endocrinology 126: 3223-3231, 1990).
In order to analyze the interactions of synthetic progestins or anabolic steroids with the androgen receptor (AR) and glucocorticoid receptor (GR) in their inhibitory action on cell growth, one takes advantage of the additivity of the anti-proliferative effects of androgens and glucocorticoids in this cell line (Poulin et al., Breast Cancer Res. Treatm. 12: 213-225, 1988; Hatton and Labrie, F., unpublished data). […] On the other hand, the effect of a putative androgen can similarly be measured following saturation of GR by dexamethasone (DEX). […] Thus, in the presence of excess androgen (1 μM DMT) in the presence of E2 and insulin, glucocorticoid effects can be assessed with precision and with no interference by the other receptors. The same applies to study of the role of AR when the cells are incubated in the presence of excess glucocorticoid (3 μM DEX), in the presence of E2 and insulin.

[2] = test system: antibody 144A; assay: MPA radioimmunoassay, specificity of antibody 144A; assay type: binding, rabbit
Text: Antibody 144A was raised in rabbits against 17-hydroxyprogesterone-3-0-carboxymethyloxime-BSA. The labeled steroid used in the radioimmunoassay (RIA) was methyl-17α-hydroxyprogesterone acetate, 6α-[1,2-^3 H(N)]- obtained from NEN (CAT NO: NET 480) while the reference preparation was medroxyprogesterone acetate (MPA) obtained from Steraloids. The assay buffer used was 0.1% gelatin in 0.1M sodium phosphate, 0.15M sodium chloride, 0.1% sodium azide, pH 7.2. The extraction solvent mixture was ethyl ether-acetone (9:1, v:v) [EEA] while the LH-20 chromatography solvent mixture was iso-octane: toluene: methanol (90:5:5;v:v:v) [IOTH].
One ml of plasma was extracted twice with 5 ml of EEA. The extracts were evaporated to dryness with nitrogen and the remaining residue was dissolved in one ml of IOTH. The extracts were then subjected to LH-20 chromatography on […] columns (Coming CAT NO: 05 722A) filled with 2 g of LH-20 (Pharmacia). The gel was washed with 30 ml of IOTH before addition of one ml of sample and elution with IOTH. The first 6 ml were discarded. The following 10, 16.5 and 27.5 ml of eluent were fraction I (progesterone), II (MPA) and III (17-LH-progesterone), respectively. Fraction II was evaporated to dryness and reconstituted in 1.5 ml of assay buffer.
To each 12 x 75 mm borosilicate test tube was added: 0.2 ml containing 25,000 DPM of tritiated steroid, 0.5 ml of reference preparation ranging from 5 to 5000 pg/tube or 0.5 ml of extracted sample fraction II, 0.2 ml of antiserum 144A diluted 1/5000 or 0.2 ml of assay buffer to account for non specific binding. The tubes were then incubated overnight at 4° C. Then, 0.2 ml 2% charcoal Norit-A, 0.2% Dextran T-70 diluted in water was added. The tubes were then shaken gently and, after 10 min, they were centrifuged at 2000 x g for 10 min. The supernatant was mixed with 8 ml of Formula-989 (NEN: NEF-989) and the radioactivity was counted in a β-counter.

[3] = test system: DMBA-induced mammary carcinoma; details: cited from earlier work
[4] = test system: breast cancer; details: cited from earlier work
[5] = test system: breast cancer; details: in vivo; cited from earlier work
[6] = test system: bone; details: cited from earlier work
[7] = test system: breast cancer; details: cited from earlier work; remark: listed apart in the source
[8] = E2-treated ovariectomized rats, with or without DHT

| Compound | androgenic activity [1] | cross-reactivity with antibody 144A [2] | also measured |
| --- | --- | --- | --- |
| C[C@@H]1C[C@@]2(C)[C@@H](CC[C@@H]3[C@@H]2CC[C@]2(C)[C@@H](O)CC[C@@H]32)CC1=O [dromostanolone] | possess androgenic activity at low concentrations | – | – |
| CC(=O)[C@H]1CC[C@H]2[C@@H]3CC=C4C[C@@H](O)CC[C@]4(C)[C@H]3CC[C@]12C [pregnenolone] | – | less than 0.1% | – |
| C[C@]12CCC(=O)C=C1CC[C@@H]1[C@@H]2[C@@H](O)C[C@@]2(C)[C@H]1CC[C@]2(O)C(=O)CO [cortisol] | – | less than 0.1% | – |
| C[C@]12CC[C@@H]3c4ccc(O)cc4CC[C@H]3[C@@H]1CCC2=O [estrone] | – | less than 0.1% | – |
| C#C[C@]1(O)CC[C@H]2[C@@H]3CCC4=Cc5oncc5C[C@]4(C)[C@H]3CC[C@@]21C [danazol] | possess androgenic activity at low concentrations | – | – |
| C[C@]12COC(=O)C[C@@H]1CC[C@@H]1[C@@H]2CC[C@@]2(C)[C@H]1CC[C@]2(C)O [oxandrolone] | possess androgenic activity at low concentrations | – | – |
| C[C@]12CC[C@@H]3c4ccc(O)cc4CC[C@H]3[C@@H]1CC[C@@H]2O [E2, 17β-estradiol] | – | less than 0.1% | number of new tumors per rat ([3]; 28-day observation period, E2-treated animals, with or without DHT): 1.5±0.3 per rat; complete responses (disappearance of palpable tumors) [3, 8]: 11.5%; progressing tumors [3, 8]: 69.2% |
| C[C@]12C/C(=C/O)C(=O)C[C@@H]1CC[C@@H]1[C@@H]2CC[C@@]2(C)[C@H]1CC[C@]2(C)O [oxymetholone] | possess androgenic activity at low concentrations | – | – |
| CC/C(=C(\c1ccccc1)c1ccc(OCCN(C)C)cc1)c1ccccc1 [Tamoxifen] | – | – | median time from onset of therapy to treatment failure ([4]; in vivo): 64 days; non-responders ([4]; in vivo): 50%; partial response (PR) ([4]; in vivo): 15%; survival ([4]; tendency for improved survival): 330 days |
| CCC(=O)O[C@H]1CC[C@H]2[C@@H]3CCC4=CC(=O)CC[C@]4(C)[C@H]3CC[C@]12C [testosterone propionate] | – | – | effect in pre- and post-menopausal women [5]: beneficial effects in both pre- and post-menopausal women; objective remissions in breast cancer [5]: effective in producing objective remissions; remission rate and duration, quality of life and survival [5]: improved remission rate and duration, quality of life and survival |
| C#C[C@]1(O)CC[C@H]2[C@@H]3CCC4=CC(=O)CC[C@]4(C)[C@H]3CC[C@@]21C [ethisterone] | possess androgenic activity at low concentrations | – | – |
| C[C@H](O)[C@H]1CC[C@H]2[C@@H]3CCC4=CC(=O)CC[C@]4(C)[C@H]3CC[C@]12C [20α-OH-Prog] | – | less than 0.1% | – |
| C[C@]12Cc3c[nH]nc3C[C@@H]1CC[C@@H]1[C@@H]2CC[C@@]2(C)[C@H]1CC[C@]2(C)O [stanozolol] | possess androgenic activity at low concentrations | – | bone mass ([6]; in vivo): increase in total bone mass; side effects ([6]; randomized study in postmenopausal women): side effects were recorded in the majority of patients |
| Vitamin D | – | – | bone resorption, osteoporotic women ([6]; in vivo): only reduced bone resorption |
| CC(=O)O[C@]1(C(C)=O)CC[C@H]2[C@@H]3C=C(Cl)C4=CC(=O)CC[C@]4(C)[C@H]3CC[C@@]21C [chlormadinone acetate] | possess androgenic activity at low concentrations | – | – |
| CCCCCCC(=O)O[C@H]1CC[C@H]2[C@@H]3CC[C@H]4CC(=O)C=C(C)[C@]4(C)[C@H]3CC[C@]12C [methonolone enanthate] | – | – | response rate ([7]; 13 of 27 patients): 48%; median duration of survival, non-responders ([7]; non-responder group): 7.5 months; median duration of survival, responders ([7]; responders): 27 months |
| CC(=O)[C@H]1CC[C@H]2[C@@H]3CCC4=CC(=O)CC[C@]4(C)[C@H]3CC[C@]12C [progesterone] | – | less than 0.1% | – |
| C[C@H]1CC2=CC(=O)CC[C@]2(C)[C@H]2CC[C@@]3(C)[C@@H](CC[C@]3(C)O)[C@H]12 [calusterone, 7β,17α-dimethyltestosterone] | possess androgenic activity at low concentrations | – | – |
| CC/C(=C(/CC)c1ccc(O)cc1)c1ccc(O)cc1 [DES] | – | – | objective remissions in breast cancer [5]: effective in producing objective remissions |
| C[C@]12CCC(=O)C=C1CC[C@@H]1[C@@H]2CC[C@]2(C)C(=O)CC[C@@H]12 [androstenedione] | – | less than 0.1% | – |
| CC(=O)[C@@]1(O)CC[C@H]2[C@@H]3CC=C4C[C@@H](O)CC[C@]4(C)[C@H]3CC[C@@]21C [17-OH-pregnenolone] | – | less than 0.1% | – |
| C[C@]12CC[C@H]3[C@@H](CCC4=CC(=O)CC[C@@H]43)[C@@H]1CC[C@@H]2O [Nor-testosterone] | possess androgenic activity at low concentrations | – | – |
| C[C@]12C=CC(=O)C=C1CC[C@@H]1[C@@H]2CC[C@@]2(C)[C@H]1CC[C@]2(C)O [methandrostanolone] | possess androgenic activity at low concentrations | – | effect on postmenopausal osteoporosis (total body calcium) ([6]; 24-26 months, double-blind): positive and relatively long-term |
| C[C@]12CC[C@@H](O)C[C@@H]1CC[C@@H]1[C@@H]2CC[C@]2(C)[C@@H](O)CC[C@@H]12 [3α-diol] | – | less than 0.1% | – |
| CC(C)C(=O)Nc1ccc([N+](=O)[O-])c(C(F)(F)F)c1 [Flutamide] | – | – | effect on DHT action ([3]; simultaneous treatment with DHT): completely prevented DHT action |
